The values below come from US8198084B2, “Serum-free mammalian cell culture medium, and uses thereof” (Life Technologies Corporation, priority 1996, dated 2012).

The subject of test [1] is 293 human embryonic kidney cells. Nature of the test: Suspension culture of 293 cells: cell density and viability. To be noted: lower-protein media, transferrin replaced by iron chelate; FIG. 2. It counts as cell-based. As for the experimental part:
Adenovirus type 5-transformed 293 human embryonic kidney epithelial cells were obtained from ATCC(CRL 1573), and were cultured as described in Example 4 by incubation at 37° C. in a humidified atmosphere consisting of 8% CO2/92% air.
Cultures of 293 cells in serum-supplemented media were weaned from serum by passage 2-3 times in OptiMEM medium (Life Technologies, Inc.; Rockville, Md.) supplemented with 2% normal horse serum in 165 cm^2 culture flasks. After the second or third passage, when cells reached 50-75% confluence, they were dislodged from the growth surfaces by gently rapping the flasks several times; trypsin or other proteolytic agents were not used, since such agents often cause irreversible damage to cells cultivated in low-serum or serum-free media. Cells were resuspended in the present culture media and triturated until aggregates dispersed into a single cell suspension, and cell concentration and viability was determined by trypan blue exclusion counting on a hemacytometer according to routine procedures.
Cells were then seeded into the present culture medium in Erlenmeyer flasks at a density of about 2.5−3.0×10^5 cells/ml. […] Cell densities and viabilities were determined at least every other day, and cells were subcultured when the density approached about 7.5−10.0×10^5 cells/ml by diluting cultures with fresh culture medium to a density of about 2.5−3.0×10^5 cells/ml. […]

Test [2] concerns rβ-gal CHO cells. The test can be described thus: rβ-Gal assay (ONPG) in lysates of rβ-gal CHO cells. In kind it is cell-based, Chinese hamster. To be noted: for level of rβ-gal expression versus CD CHO control: Example 14, 25 μg/mL in CD CHO medium, FIG. 14. As for the experimental part: rβ-Galactosidase (rβ-gal or rβeta-Gal) was measured in cell lysates using a modification of the method described by Hall et al., J. Mol. Appl. Gen. 2:101-109 (1983) and Miller, Experiments in Molecular Genetics, Cold Spring Harbor Laboratory (1972). Briefly, a 2.0 ml sample of cell suspension was collected from each sample and subjected to two freeze-thaw cycles, centrifuged at 100× g for 4 minutes, and the supernatant was saved for rβ-Galactosidase quantitation. 100 μl of each supernatant sample was added to 1.0 ml Z buffer (0.06 M Na2HPO4, 0.04M NaH2PO4, 0.01M KCl, 0.01M MgSO4-7H2O, 0.05M β-mercaptoethanol, pH 7.0), followed by 200 μl of o-nitrophenyl-p-D-galactoside (ONPG, 4.0 mg/ml in dH20) and incubated at 37° C. for 120 minutes. The reaction was halted by addition of 500 μl stop buffer (1M Na2CO3) and absorbance at 420 nm was read against a blank of the appropriate medium. Activity was calculated using the following formulae:
[formula] Units rβ-galactosidase/# of cells=Activity/cell 2.

Test [3] relates to rβ-gal CHO cells. Nature of the test: Growth (cell density) of rβ-gal CHO cells in suspension culture. It counts as cell-based, Chinese hamster. To be noted: for cell growth and viability versus CD CHO control: Example 14, 25 μg/mL in CD CHO medium, FIG. 13. As for the experimental part: To establish a recombinant β-galactosidase (rβ-Gal) CHO cell line, CHO cells deficient in dihydrofolate reductase (DHFR^−) were obtained from ATCC(CRL-9096, Rockville, Md.) and transfected with two plasmids: pSV2dhfr (ATCC 37146), containing a gene for methotrexate (MTX) resistance, and pCMVβgal, which contains the lacZ cDNA. The transfection was conducted using LipofectAMINE™ Reagent, and selection was accomplished with 1.2 μM methotrexate (Sigma Chemical Co., St Louis, Mo.). Stock cultures were maintained in CHO-S-SFM II or CHO III Prototype supplemented with 0.3 μM MTX.
Unless indicated otherwise below, CHO cell culture conditions were as follows for the following Examples. 25-35 mL of CHO cells were cultured in 125 mL shake flasks in humidified air containing 5-10% carbon dioxide. The shake flasks were shaken on an orbital shaking platform at 125-135 rpm. Temperature was maintained at 37° C. Cells were subcultured every three to four days to a density of 2−3×10^5 cells/mL.

For the molecule FeCl3-sodium citrate, the “support of 293 cell growth compared with complete media” value in test [1] is “performed equivalently to complete media”.

`CN(Cc1cnc2nc(N)nc(N)c2n1)c1ccc(C(=O)N[C@@H](CCC(=O)O)C(=O)O)cc1` [MTX, methotrexate, reference compound]: the “relation of concentration to rβ-galactosidase specific activity” value in the test with rβ-gal CHO cells [2] (Example 9, CD CHO medium with increasing concentrations, FIG. 7B) was “proportional”. Also, in the test on rβ-gal CHO cells [3] (Example 9, CD CHO medium with increasing concentrations, FIG. 7A), the “relation of concentration to cell density” value is recorded as “inversely proportional”.

As for “dextran sulfate [dextran sulfate (m.w. 5,000)]”, the “level of rβ-gal expression versus CD CHO control” value with rβ-gal CHO cells [2] is “an increase in the level of rβ-gal expression at days 5, 7, and 9”. Moreover, in the test on rβ-gal CHO cells [3], the “cell growth and viability versus CD CHO control” value was “increased cell growth and viability at days 5, 7, and 9”.

For the molecule FeSO4-EDTA, the “support of 293 cell growth compared with complete media” value in test [1] is “performed equivalently to complete media”.

Consider “dextran sulfate [dextran sulfate (m.w. 500,000)]”, for which the “level of rβ-gal expression versus CD CHO control” value with rβ-gal CHO cells [2] is listed as “did not display enhanced expression”. Moreover, in the test on rβ-gal CHO cells [3], the “cell growth and viability versus CD CHO control” value was “increased cell growth and viability at days 5 and 7, but not at day 9”.
